Measurements taken from ChEMBL document CHEMBL1152350, “Identification of compounds exhibiting inhibitory activity toward the Pseudomonas tolaasii toxin tolaasin I using in silico docking calculations, NMR binding assays, and in vitro hemolytic activity assays” (Bioorg Med Chem Lett, 2009).
Activity calls are given as the source filed them. No cut-off for these calls is given here.

Experiments:
Pseudomonas tolaasii [1] = test: Suppression of Pseudomonas tolaasii tolaasin 1-induced hemolysis in rat erythrocytes; type: cell-based
Pseudomonas tolaasii [2] = test: Binding affinity to Pseudomonas tolaasii tolaasin 1 at 1 mM by NMR spectroscopy
Pseudomonas tolaasii [3] = test: Suppression of Pseudomonas tolaasii tolaasin 1-induced hemolysis in rat erythrocytes at 10 to 100 uM; type: cell-based
Pseudomonas tolaasii [4] = test: Suppression of Pseudomonas tolaasii tolaasin 1-induced hemolysis in rat erythrocytes at >1 mM; type: cell-based

For Cc1[nH]c(=N)sc1C, the Activity (Pseudomonas tolaasii [1]) was “inactive” and the Activity (Pseudomonas tolaasii [2]) was “inactive”.
In the case of CCCCCCCC/C=C\CCCCCCCC(=O)OC[C@@H](O)[C@@H](O)[C@H](O)[C@@H](O)CO, the Activity (Pseudomonas tolaasii [3]) is reported as 40%, the Activity (Pseudomonas tolaasii [4]) is reported as “inactive” and the Activity (Pseudomonas tolaasii [2]) is reported as “Active”.
